Here are results for 8 compounds from US6358491B1, “Somatostatin analogs” (Berlex Laboratories, Inc., priority 1999, dated 2002).

This experiment relates to SSTRs, NCI-H69 membranes. Nature of the experiment: [125I]SST-14 binding to NCI-H69 cell membranes (SSTR affinity). As to conditions: inhibition of [125I]SST-14 binding, two-site fit. On the set-up: species or system human. How it is done:
[^125I-Tyr^11] somatostatin-14 ([^125I]SST-14) was obtained from Amersham. Unlabeled somatostatin-14 was purchased either from BACHEM (Torrance, Calif.) or from Sigma Chemical Co. (St. Louis, Mo.). Protease inhibitors, leupeptin, aprotinin, bacitracin, and benzamidine and other reagents were obtained from Sigma. Protease inhibitors were prepared in dimethylsulfoxide (DMSO) at a concentration 500×higher than the final assay concentration. The prepared protease solution was stored at −20° C. and diluted with the buffer solution before use.
Membrane preparations used in these studies were prepared from two commercially available tumor cell lines, the human small cell lung cancer cell line, NCI-H69, and the rat pancreatic tumor cell line, AR42J, obtained from American Type Culture Collection (ATCC) (Manassas, Va.). NCI-H69 cells were maintained by serial passage in RPMI 1640 with 10% fetal calf serum. AR42J cells were maintained in F-12K medium containing 20% fetal calf serum. Cells in culture flasks were incubated at 37° C. with 5% CO2 in air atmosphere following the recommendations of the “Product Sheet” from ATCC.
Cultured cells were first detached from plates with phosphate-buffered saline, pH 7.4, containing 2 mM EDTA, and centrifuged at 1,500×g for 10 min. Cells were then resuspended in 5-10 mL of the homogenization buffer (1 mM sodium bicarbonate, pH 7.4, 1 mM EDTA, 1 mM EGTA, 2.5 mM DTT, 5 μg/mL leupeptin, 5 μg/mL aprotinin, 100 μg/mL bacitracin, 100 μg/mL benzamidine) for 10 min on ice. The cells were lysed for 30 sec twice in a polytron with a setting at 5. The lysate was centrifuged at 1,000×g for 10 min at 4° C. The supernatant was centrifuged at 40,000×g for 20 min at 4° C. This step was repeated twice with the homogenization buffer in the absence of protease inhibitors. The pellet was then resuspended at 1-5 mg membrane protein/mL in 25 mM Tris, pH 7.4 without the addition of protease inhibitors and the membranes were stored at −80° C. before use. Membrane protein concentration was determined spectroscopically using the bicinchonic acid (BCA) protein assay kit (Pierce Chemical Inc. (Rockford, Ill.).
All [^125I]SST-14 binding assays were performed in 0.5 mL binding buffer containing 50 mM HEPES, pH 7.5, 10 mM MgCl2, 0.25% BSA (w/v) containing protease inhibitors (same as above) and incubated at 37° C. for 45 minutes. After incubation, samples were kept at 4° C. and rapidly filtered under vacuum through a Whatman GF/B glass fiber filter with a 12-well harvester (Skatron Instruments Inc., Sterling, Va.). The filter was washed for 9 seconds with cold 50 mM HEPES, pH 7.5, 10 mM MgCl2, 0.25% BSA (w/v). Thirty-five […] of [^125I]SST-14 from Amersham was used in each tube. Peptides were solubilized in DMSO and serially diluted with DMSO. Five μL of peptide in DMSO was used to obtain the final concentration. DMSO (5 μL) was added to the tube without the addition of any peptide or unlabeled SST-14, so that each tube contained 1% DMSO. Non-specific binding was defined as the binding of [^125I]SST-14 which was not displaceable with an excess of unlabeled SST-14 at a concentration of 1×10^−6 M. The bound [^125I]SST-14 without or with excess unlabeled SST-14 (1×10^−6 M) was defined as total binding and nonspecific binding, respectively. The difference between total and nonspecific binding was defined as specific binding. The percent inhibition (% Inh) by peptide was expressed as
% Inh=(total binding−total binding in the presence of peptide)/specific binding×100%
Inclusion of protease inhibitors in homogenizing medium as well as assay buffer is essential to maintain the integrity of both [^125I]SST-14 and somatostatin analogs for the receptor binding assay and to obtain optimal specific binding. The highest specific binding was observed when MgCl2 (10 mM) was included. Membranes were finally resuspended in a sodium-free medium and receptor binding assays were performed in the absence of sodium ions. […]

Where [1] appears, read: read-out: IC50 Values for Uncomplexed Compounds, NCI-H69 (first value).
Where [2] appears, read: read-out: IC50 Values for Uncomplexed Compounds, NCI-H69 (second value).

Read-outs that look alike come from different tables or passages of the source. Where a SMILES comes first, the peptide text is derived from it. [ ]: non-standard residue; d: D form. ξ: configuration not given here. NMehCys = CN[C@@H](CCS)C(=O)O; Thr(3ξ) = CC(O)[C@H](N)C(=O)O

For orientation: IC50 means the point on the concentration scale where inhibition reaches its midpoint.

As to `C[C@@H](O)[C@@H]1NC(=O)[C@H](CCCCN)NC(=O)[C@@H](Cc2c[nH]c3ccccc23)NC(=O)[C@H](Cc2ccc(O)cc2)NC(=O)[C@H](CCSCC(=O)NC[C@H](N)C(=O)N[C@@H](CN)C(=O)N[C@@H](CS)C(=O)N[C@H](CO)[C@@H](C)O)N(C)C(=O)[C@H](Cc2ccccc2)NC1=O` [cyclo-Tyr-D-Trp-Les-Thr-Phe-(N—CH3)Hcy(CH2 CO-β-Dap-Dap-Cys-Thr(ol))], the IC50 by setting is: under setting [1], 0.449 nM; under setting [2], 46.8 nM.
For the compound `C[C@@H](O)[C@@H]1NC(=O)[C@H](CCCCN)NC(=O)[C@@H](Cc2c[nH]c3ccccc23)NC(=O)[C@H](Cc2ccc(O)cc2)NC(=O)[C@H](CCSCC(=O)NC[C@H](N)C(=O)N[C@@H](CCCNC(=N)N)C(=O)N[C@@H](CS)C(=O)N[C@H](CO)[C@@H](C)O)N(C)C(=O)[C@H](Cc2ccccc2)NC1=O` [cyclo-Tyr-D-Trp-Lys-Thr-Phe-(N—CH3)Hcy(CH2 CO-β-Dap-Arg-Cys-Thr(ol))], the 50% inhibitory concentration (IC50) was 0.413 nM under setting [1] and less than 0.001 nM under setting [2].
Taken in the same sequence, the figures for `C[C@@H](O)[C@@H]1NC(=O)[C@H](CCCCN)NC(=O)[C@@H](Cc2c[nH]c3ccccc23)NC(=O)[C@H](Cc2ccc(O)cc2)NC(=O)[C@H](CCSCC(=O)NC[C@H](N)C(=O)N[C@@H](CCN)C(=O)N[C@@H](CS)C(=O)N[C@H](CO)[C@@H](C)O)N(C)C(=O)[C@H](Cc2ccccc2)NC1=O` [cyclo-Tyr-D-Trp-Lys-Thr-Phe-(N—CH3)Hcy(CH2 CO-β-Dap-Dab-Cys-Thr(ol))] were 0.642 nM and more than 1000 nM.
On the same counts, the results for `C[C@@H](O)[C@H](NC(=O)[C@H](CS)NC(=O)[C@H](CCN)NC(=O)[C@@H](N)CNC(=O)CSCC[C@H]1C(=O)N[C@@H](Cc2ccc(O)cc2)C(=O)N[C@H](Cc2c[nH]c3ccccc23)C(=O)N[C@@H](CCCCN)C(=O)N[C@@H]([C@@H](C)O)C(=O)N[C@@H](Cc2ccccc2)C(=O)N1C)C(=O)O` [cyclo-Tyr-D-Trp-Lys-Thr-Phe-(N—CH3)Hcy(CH2 CO-β-Dap-Dab-Cys-Thr)] are 1.25 nM and 1.25 nM.
Taken in the same sequence, the figures for `C[C@@H](O)[C@H](NC(=O)[C@H](CS)NC(=O)[C@H](Cc1ccc(N)cc1)NC(=O)[C@@H](N)CNC(=O)CSCC[C@H]1C(=O)N[C@@H](Cc2ccc(O)cc2)C(=O)N[C@H](Cc2c[nH]c3ccccc23)C(=O)N[C@@H](CCCCN)C(=O)N[C@@H]([C@@H](C)O)C(=O)N[C@@H](Cc2ccccc2)C(=O)N1C)C(=O)O` [cyclo-Tyr-D-Trp-Lys-Thr-Phe-(N—CH3)Hcy(CH2 CO-β-Dap-Phe(4-NH2)-Cys-Thr)] were 0.641 nM and 0.641 nM.
On to `CC(O)[C@@H]1NC(=O)[C@H](CCCCN)NC(=O)[C@@H](Cc2c[nH]c3ccccc23)NC(=O)[C@H](Cc2ccc(O)cc2)NC(=O)[C@H](CCS)N(C)C(=O)[C@H](Cc2ccccc2)NC1=O` (stereo partly drawn) [cyclo-YWDKTF.(N—CH3).Hcy., cyclo-Tyr-D-Trp-Lys-Thr-Phe-(N—CH3)Hcy] (cyclo(F[NMehCys]Y[dW]K[Thr(3ξ)])), for which the IC50 under setting [1] worked out at 0.21 nM.
For `C[C@@H](O)[C@H](NC(=O)[C@H](CS)NC(=O)[C@H](Cc1ccc(N)cc1)NC(=O)[C@@H](N)CNC(=O)CSCC[C@H]1C(=O)N[C@@H](Cc2ccc(O)cc2)C(=O)N[C@H](Cc2c[nH]c3ccccc23)C(=O)N[C@@H](CCCCN)C(=O)N[C@@H]([C@@H](C)O)C(=O)N[C@@H](Cc2ccccc2)C(=O)N1C)C(=O)NC(CO)CO` [cyclo-YWDKTF.(N—CH3)Hcy(CH2CO.β-Dap.F(4-NH2).CT.S(ol))], the IC50 by setting is: under setting [1], 0.388 nM; under setting [2], 0.388 nM.
Regarding `CC(C)[C@@H]1NC(=O)[C@H](CCCCN)NC(=O)[C@@H](Cc2c[nH]c3ccccc23)NC(=O)[C@H](Cc2ccc(O)cc2)NC(=O)[C@H](CCS)N(C)C(=O)[C@H](Cc2ccccc2)NC1=O` [cyclo-YWDKVF.(N—CH3).Hcy.] (cyclo(Y[dW]KVF[NMehCys])), under setting [1], the IC50 is 0.21 nM.
